We go through 3 compounds from patent US20170198292A1, “Methods and Compositions for Modulating Lung Cancer Tumor Initiating Cells (TIC), and Oxytocin Receptor (OXTR) Modulatory Agents for Use in Practicing the Same” (The Board of Trustees of the Leland Stanford Junior …, priority 2014, published 2017).

Common to all, as to format: cell-based, human
Test [1] relates to tumor spheres of H226 and H520 cells. The experiment in a line: Sphere-forming assay (tumor spheres / TIC growth). Here is the method: All gene expression and survival data were obtained from publicly-available resources: NCI TCGA and NCBI GEO. Human lung cancer tissue samples were purchased from US Biomax. Cell imaging was acquired using a confocal laser scanning microscope at the Stanford Fluorescence Microscopy Core. FACS was done at the Stanford FACS core facility. All sphere-forming assays and mouse xenograft model were performed at the Stanford Transgenic, Knockout and Tumor Model Center. qRT-PCR and sequencing was performed at Stanford Protein and Nucleic Acid Facility. • A. Text mining of lung TIC associated literature. PubMed literatures were queried on Apr. 13, 2015, using the search term, (“Neoplastic Stem Cells”[majr] OR “tumor-propagating cells”[All Fields]) AND “lung cancer”[All Fields]. […] Words with a prefix “CD” followed by digits were extracted from the title and abstract of each article. Resulted terms were manually examined. Immune cell CD markers were excluded from the list. CD marker with positive sign, such as CD133+, was treated as different from CD133 or CD133−. The number of unique occurrence of each term is counted in titles and abstracts. Terms occurred in at least two different articles were selected for ranking by its occurrence frequency. • B. Primary Tumor Cell Preparation. SQCC samples were collected from patients according to protocols approved by the Stanford IRB board. Samples were washed, dissociated, and incubated in DNase and collagenase/dispase. After incubation, cell clusters and red blood cells were removed. The single cells were resuspended and prepared for cell culture and staining. • C. Microarray datasets. The TOGA lung cancer gene expression datasets were downloaded from the TOGA data portal on September 2012. No significant changes in available sample size were found during a recent check. These datasets were selected based on two criteria: explicit pathological diagnosis of SQCC and associated with an actual publication. Pearson or Spearman correlation analysis was used for the association study, depending on whether the distribution of the gene expression data is parametric or non-parametric. Multiple hypothesis testing was corrected using false discovery rates to select associations with a q value less than 0.1. Meta-analysis of correlations were performed using R package meta, where fixed and random effects estimates were calculated and inverse variance weighting was used for pooling. Survival data was extracted from all the datasets whenever they were available. Proportional hazards regression analysis was performed with the gene expression of OXTR and CD133 as covariates. Proportional hazard hypothesis was test based on weighted residuals. • D. Cell Culture and Imaging. H226, H520, HCC827, H522 and NL20 cell lines were purchased from ATCC and cultured in recommended cell medium for bulk cancer cell growth. HCC95 and H157 were from Dr. Sage's laboratory. APC conjugated mouse anti-CD133 Ab (BioLegend 14208), goat anti-OXTR Ab (Life Technologies ab87312) with anti-goat Alexa488 (Life Technologies A11055), rabbit anti-CD44 (Santa Cruz Biotech sc-7946) with anti-rabbit Alexa594 (Life Technologies A21207) and rabbit anti-OXT with anti-rabbit Alexa594 were used to stain CD133, OXTR, CD44 and OXT respectively in human tissue samples and cell lines for immunofluorescence (IF) imaging. Goat F(ab′)2 IgG (Life Technologies 11301C) and isotype control for rabbit primary Ab (Life Technology 08-6199) were used as isotype control of OXTR Ab and CD133 Ab. Quantitative IF imaging signal of human lung tissue samples were measured using the Bioquant image analysis software in the Nikon 8000 microscope and Leica DMI 6000B. • E. Flow Cytometry. Cells were stained with CD133, CD44 or OXTR Ab separately for single channel counting, and stained with CD133 and OXTR Ab for double channel counting and sorting. Cells were also stained for secondary Ab alone for subtraction of non-specific binding. […]

Another test deals with H226 and H520 cells. Put plainly: Colony formation. Conditions: statistically significant at 0.5 μM, 5 μM and 10 μM. From the text: To determine whether the expression of OXTR is associated with the growth of regular cancer cells and TICs, we treated regular cancer cells and tumor spheres of SQCC cell lines with an OXTR specific inhibitor (Manning et al.,“Oxytocin and vasopressin agonists and antagonists as research tools and potential therapeutics,” Journal of neuroendocrinology (2012) 24: 609-628), L-368,899 (L3) to suppress its activity, or its natural ligand oxytocin (OXT) to induce its activity.

In test [2] the test system is tumor spheres derived from primary SQCC cells. The experiment in a line: Sphere-forming assay, primary SQCC cells. Conditions: at 5 μM; three days. Here is the method: All gene expression and survival data were obtained from publicly-available resources: NCI TCGA and NCBI GEO. Human lung cancer tissue samples were purchased from US Biomax. Cell imaging was acquired using a confocal laser scanning microscope at the Stanford Fluorescence Microscopy Core. FACS was done at the Stanford FACS core facility. All sphere-forming assays and mouse xenograft model were performed at the Stanford Transgenic, Knockout and Tumor Model Center. qRT-PCR and sequencing was performed at Stanford Protein and Nucleic Acid Facility. • A. Text mining of lung TIC associated literature. PubMed literatures were queried on Apr. 13, 2015, using the search term, (“Neoplastic Stem Cells”[majr] OR “tumor-propagating cells”[All Fields]) AND “lung cancer”[All Fields]. […] Words with a prefix “CD” followed by digits were extracted from the title and abstract of each article. Resulted terms were manually examined. […] The number of unique occurrence of each term is counted in titles and abstracts. […] Meta-analysis of correlations were performed using R package meta, where fixed and random effects estimates were calculated and inverse variance weighting was used for pooling. […] Quantitative IF imaging signal of human lung tissue samples were measured using the Bioquant image analysis software in the Nikon 8000 microscope and Leica DMI 6000B. • E. Flow Cytometry. […]

Test [3] has as its system regular H226 and H520 cells. Put plainly: Proliferation of regular cancer cells. As to conditions: for cell proliferation of regular H226 and H520 cells: 3-day treatment. The method, then:
All gene expression and survival data were obtained from publicly-available resources: NCI TCGA and NCBI GEO. Human lung cancer tissue samples were purchased from US Biomax. Cell imaging was acquired using a confocal laser scanning microscope at the Stanford Fluorescence Microscopy Core. FACS was done at the Stanford FACS core facility. All sphere-forming assays and mouse xenograft model were performed at the Stanford Transgenic, Knockout and Tumor Model Center. qRT-PCR and sequencing was performed at Stanford Protein and Nucleic Acid Facility. • A. Text mining of lung TIC associated literature. PubMed literatures were queried on Apr. 13, 2015, using the search term, (“Neoplastic Stem Cells”[majr] OR “tumor-propagating cells”[All Fields]) AND “lung cancer”[All Fields]. […] Words with a prefix “CD” followed by digits were extracted from the title and abstract of each article. Resulted terms were manually examined. Immune cell CD markers were excluded from the list. CD marker with positive sign, such as CD133+, was treated as different from CD133 or CD133−. The number of unique occurrence of each term is counted in titles and abstracts. Terms occurred in at least two different articles were selected for ranking by its occurrence frequency. • B. Primary Tumor Cell Preparation. SQCC samples were collected from patients according to protocols approved by the Stanford IRB board. Samples were washed, dissociated, and incubated in DNase and collagenase/dispase. After incubation, cell clusters and red blood cells were removed. The single cells were resuspended and prepared for cell culture and staining. • C. Microarray datasets. The TOGA lung cancer gene expression datasets were downloaded from the TOGA data portal on September 2012. […] Meta-analysis of correlations were performed using R package meta, where fixed and random effects estimates were calculated and inverse variance weighting was used for pooling. […] Quantitative IF imaging signal of human lung tissue samples were measured using the Bioquant image analysis software in the Nikon 8000 microscope and Leica DMI 6000B. • E. Flow Cytometry. […]

A further test has as its system ERK1/2. Put plainly: ERK1/2 phosphorylation, western blot. Background: A western blot detects proteins with antibodies after separation by electrophoresis.

Consider `Cc1ccccc1N1CCN(S(=O)(=O)C[C@]23CC[C@H](C[C@@H]2NC(=O)[C@@H](N)CCS(C)(=O)=O)C3(C)C)CC1` [L3, (S)-2-amino-N-((1S,2S,4R)-7,7-dimethyl-1-((4-o-tolylpiperazin-1-lsulfonyl)methyl)bicyclo[2.2.1]heptan-2-yl)-4-(methylsulfonyl)butanamide], for which, in test [1] (H226 and H520 cells, after 3 days of treatment, statistically significant at 5 μM and 10 μM), the tumor sphere numbers entry is “dose-dependent decrease”. The “colony formation of H226 and H520 cells” value in the test with H226 and H520 cells is reported as “reduced the colony formation”. The “sphere growth of tumor spheres derived from primary SQCC cells” value in test [2] is recorded as “significantly reduced the sphere growth”. For the same compound, the “cell proliferation of regular H226 and H520 cells” value in test [3] is recorded as “neither L3 nor OXT affected the cell proliferation”.
Consider `CC[C@H](C)[C@@H]1NC(=O)[C@H](Cc2ccc(O)cc2)NC(=O)[C@@H](N)CSSC[C@@H](C(=O)N2CCC[C@H]2C(=O)N[C@@H](CC(C)C)C(=O)NCC(N)=O)NC(=O)[C@H](CC(N)=O)NC(=O)[C@H](CCC(N)=O)NC1=O` [OXT, oxytocin], for which the “phosphorylation of ERK1/2 in regular H226 and H520 cells” value with ERK1/2 (100 nM for two days, compared to solvent control) is given as “unchanged”. Besides, the “phosphorylation of ERK1/2 in TICs” value in the test on ERK1/2 (100 nM for two days, compared to solvent control, tumor spheres of H226 and H520) was “greatly increased”. For the same compound, the “tumor sphere size vs solvent control” value in test [1] (H226 and H520 tumor spheres treated for three days) is on record as “significantly larger”. Moreover, the tumor sphere growth entry in test [1] (both cell lines (H226, H520), statistically significant at as low as 10 nM) was “dose dependent increase”. Besides, the “cell proliferation of regular H226 and H520 cells” value in test [3] is on record as “neither L3 nor OXT affected the cell proliferation”.
As for `N#CC(=C(/N)Sc1ccccc1N)/C(C#N)=C(\N)Sc1ccccc1N` [U0126], the “OXT induced phosphorylation of ERK1/2” value with ERK1/2 (CCs and TICs of H226 and H520 cell lines, co-treatment with OXT) was “inhibited”. Besides, the “rescue of the inhibitory effect by increasing dose of OXT” value in test [1] (H226 and H520) is “could not be rescued”. Moreover, in test [1] (H226 and H520 spheres), the TIC growth result is “dose dependent inhibition”. Moreover, the “OXT induced increase of TIC growth” value in test [1] (both H226 and H520 cells, co-treatment with OXT) is on record as “blocked”. The “proliferation in regular cancer cells” value in test [3] (H226 and H520 cells) is reported as “increased proliferation”.
